The values that follow come from patent US11339130B1 (Blade Therapeutics, Inc., priority 2016, dated 2022).

The assay concerns Bleomycin-induced pulmonary fibrosis. As to the kind of experiment: Bleomycin-induced pulmonary fibrosis in mice (14 d). In kind it is in vivo. Further details: concentration or dose not given beside the values. From the text:
The method for inducing pulmonary fibrosis in mice is described in Current Protocols in Pharmacology: 5.46.1, entitled “Mouse Models of Bleomycin-induced Pulmonary Fibrosis”. In order to induce pulmonary fibrosis, 6-8 week old C57B1/6 mice or Wistar rats are instilled once oropharyngeally with ˜1.5 U/kg of bleomycin sulfate (Calbiochem, Billerica, Mass.). Briefly, for oropharyngeal administration of bleomycin, mice or rats are anesthetized with isofluorane and then suspended on its back at a˜60 degree angle on an inclined surface with a rubber band running under the upper incisors. The airway is opened while securing the tongue with one arm of padded forceps and bleomycin is administered into the back of the oral cavity with a syringe. The animal's tongue and mouth were held open until the liquid disappeared from the oral cavity. The animal was then returned to its cage and monitored until fully recovered from the anesthesia. The study is terminated on day 14-28 for oropharyngeally administered bleomycin in mice and rats. All animals are euthanized at the termination of the studies by cervical dislocation for gross necropsy, and blood collected by cardiac puncture. The lungs from each animal are dissected from the animal and weighed. The BAL cells and fluid are collected by lavaging the lung twice with 0.5 ml Hanks Balanced Salt Solution (HBSS; VWR, Radnor, Pa.). After collection of BAL cells and fluid, lungs are dissected and removed from each animal. Whole lungs are inflated with 10% NBF and then fixed in 10% NBF for histology. Severity of fibrosis in the lungs is evaluated using a modified Ashcroft score (Hubner, Biotechniques, 2008) and subjective fibrosis scores. Lung sections were graded by averaging 5 microscopic fields at 20× on an Ashcroft scale as follows: Grade 0=normal lung; Grade 1=minimally detectable thickening of alveolar walls; Grade 2=Mild thickening of alveolar walls. Grade 3=moderate contiguous thickening of walls with fibrous nodules; Grade 4=Thickened septae and confluent fibrotic masses that total less than 10% of microscopic field. Grade 5=increased fibrosis with definite damage to lung structure and formation of fibrous bands or small fibrous masses between 10 and 50% of microscopic field; Grade 6=Large contiguous fibrotic masses consolidating more than 50% of microscopic field. Grade 7=severe distortion of structure and large fibrous areas; Grade 8=total fibrous obliteration of lung within microscopic field. Each slide was examined at 20× magnification and the score for 5 separate representative fields was averaged for each animal. Subjective scores (H&E and Trichrome-stained slides) were evaluated at 2× magnification for an overall assessment of pathologic change. A score of 0=no detectible findings to 5=complete involvement of consolidation. Scores in each group were averaged and standard error was calculated using Excel 2010. Dense, organized inflammatory exudates were scored as fibrosis. Other tissues were evaluated microscopically and scored routinely.

Take `Cc1ccc(=O)n(-c2ccccc2)c1` [pirfenidone, reference compound]: the “% reduction compared to vehicle” value is −14%.
